Assay results taken from PubChem BioAssay AID1963965 (Molecular Pharmacology Branch, DTP, NCI, 2024).

System: 996289-038-R-J1-PDC spheroid viability
Assay: Anticancer human tumor 996289-038-R-J1-PDC patient-derived colon adenocarcinoma cell line growth inhibition [PI3K]
Details: spheroids with HUVEC and MSC; for IC50: curve of first compound; for viability, T/C: stronger effect = lower value
How it was run: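 Agents were dosed from a top concentration near clinical Cmax (otherwise 10 microM) in half-log decrements, alone or combined with PI3K inhibitors. The spheroids contain tumor cells plus endothelial (HUVEC) and MSC stroma; viability is measured.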

[1] = second compound 0.00316 µM, first compound 0.0316 µM
[2] = second compound 0.00316 µM, first compound 0.1 µM
[3] = second compound 0.00316 µM, first compound 0.316 µM
[4] = second compound 0.00316 µM, first compound 1 µM
[5] = second compound 0.00316 µM, first compound 3.16 µM
[6] = second compound 0.00316 µM, first compound 10 µM
[7] = second compound 0.01 µM, first compound 0.0316 µM
[8] = second compound 0.01 µM, first compound 0.1 µM
[9] = second compound 0.01 µM, first compound 0.316 µM
[10] = second compound 0.01 µM, first compound 1 µM
[11] = second compound 0.01 µM, first compound 3.16 µM
[12] = second compound 0.01 µM, first compound 10 µM
[13] = second compound 0.0316 µM, first compound 0.0316 µM
[14] = second compound 0.0316 µM, first compound 0.1 µM
[15] = second compound 0.0316 µM, first compound 0.316 µM
[16] = second compound 0.0316 µM, first compound 1 µM
[17] = second compound 0.0316 µM, first compound 3.16 µM
[18] = second compound 0.0316 µM, first compound 10 µM
[19] = second compound 0.1 µM, first compound 0.0316 µM
[20] = second compound 0.1 µM, first compound 0.1 µM
[21] = second compound 0.1 µM, first compound 0.316 µM
[22] = second compound 0.1 µM, first compound 1 µM
[23] = second compound 0.1 µM, first compound 3.16 µM
[24] = second compound 0.1 µM, first compound 10 µM
[25] = second compound 0.316 µM, first compound 0.0316 µM
[26] = second compound 0.316 µM, first compound 0.1 µM
[27] = second compound 0.316 µM, first compound 0.316 µM
[28] = second compound 0.316 µM, first compound 1 µM
[29] = second compound 0.316 µM, first compound 3.16 µM
[30] = second compound 0.316 µM, first compound 10 µM
[31] = second compound 1 µM, first compound 0.0316 µM
[32] = second compound 1 µM, first compound 0.1 µM
[33] = second compound 1 µM, first compound 0.316 µM
[34] = second compound 1 µM, first compound 1 µM
[35] = second compound 1 µM, first compound 3.16 µM
[36] = second compound 1 µM, first compound 10 µM
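Note: spheroids exposed to compounds for seven days before viability read.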
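Throughout, for viability, T/C: luminescence used as a proxy for viable cell amount; percent viability relative to DMSO vehicle control as 100%.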

## C#Cc1c(F)ccc2cc(O)cc(-c3ncc4c(N5CC6CCC(C5)N6)nc(OCC56CCCN5CC(F)C6)nc4c3F)c12 (centres undefined) + CC(Nc1ccc2c(c1)OCCn1cc(N3C(=O)OCC3C(F)F)nc1-2)C(N)=O
Second compound 0.00316 µM
  IC50: 1450 nM
Second compound 0.01 µM
  IC50: 859 nM
Second compound 0.0316 µM
  IC50: 641 nM
Second compound 0.1 µM
  IC50: 347 nM
Second compound 0.316 µM
  IC50: 169 nM
Second compound 1 µM
  IC50: 77.2 nM
[1]
  viability, T/C: 86%
[2]
  viability, T/C: 81.2%
[3]
  viability, T/C: 67.4%
[4]
  viability, T/C: 52%
[5]
  viability, T/C: 45%
[6]
  viability, T/C: 34.9%
[7]
  viability, T/C: 89%
[8]
  viability, T/C: 80.6%
[9]
  viability, T/C: 57.7%
[10]
  viability, T/C: 52.6%
[11]
  viability, T/C: 39.8%
[12]
  viability, T/C: 41.1%
[13]
  viability, T/C: 87.5%
[14]
  viability, T/C: 83.2%
[15]
  viability, T/C: 59.6%
[16]
  viability, T/C: 42.5%
[17]
  viability, T/C: 44.2%
[18]
  viability, T/C: 30%
[19]
  viability, T/C: 75%
[20]
  viability, T/C: 69.6%
[21]
  viability, T/C: 50.2%
[22]
  viability, T/C: 35.9%
[23]
  viability, T/C: 32%
[24]
  viability, T/C: 26.1%
[25]
  viability, T/C: 72.2%
[26]
  viability, T/C: 57.1%
[27]
  viability, T/C: 40.8%
[28]
  viability, T/C: 33.7%
[29]
  viability, T/C: 29.6%
[30]
  viability, T/C: 21.6%
[31]
  viability, T/C: 56.8%
[32]
  viability, T/C: 48.8%
[33]
  viability, T/C: 39%
[34]
  viability, T/C: 29.3%
[35]
  viability, T/C: 26.4%
[36]
  viability, T/C: 17.9%

## CNC(=O)c1ccc(N2C(=S)N(c3ccc(C#N)c(C(F)(F)F)c3)C(=O)C2(C)C)cc1F + COc1c(OCCCN2CCOCC2)ccc2c3n(c(=NC(=O)c4cnc(N)nc4)nc12)CCN3
Second compound 0.00316 µM
  IC50: > 10000 nM
Second compound 0.01 µM
  IC50: > 10000 nM
Second compound 0.0316 µM
  IC50: > 10000 nM
Second compound 0.1 µM
  IC50: > 10000 nM
Second compound 0.316 µM
  IC50: < 31.6 nM
Second compound 1 µM
  IC50: < 31.6 nM
[1]
  viability, T/C: 103%
[2]
  viability, T/C: 92.2%
[3]
  viability, T/C: 93.2%
[4]
  viability, T/C: 106%
[5]
  viability, T/C: 99.4%
[6]
  viability, T/C: 125%
[7]
  viability, T/C: 98%
[8]
  viability, T/C: 89.8%
[9]
  viability, T/C: 103%
[10]
  viability, T/C: 88.9%
[11]
  viability, T/C: 87%
[12]
  viability, T/C: 106%
[13]
  viability, T/C: 82.5%
[14]
  viability, T/C: 78%
[15]
  viability, T/C: 81%
[16]
  viability, T/C: 67.5%
[17]
  viability, T/C: 89.4%
[18]
  viability, T/C: 92.4%
[19]
  viability, T/C: 66.5%
[20]
  viability, T/C: 66.2%
[21]
  viability, T/C: 64.8%
[22]
  viability, T/C: 67.7%
[23]
  viability, T/C: 58.7%
[24]
  viability, T/C: 65.9%
[25]
  viability, T/C: 40.1%
[26]
  viability, T/C: 33.2%
[27]
  viability, T/C: 34.5%
[28]
  viability, T/C: 39.8%
[29]
  viability, T/C: 40.3%
[30]
  viability, T/C: 27.6%
[31]
  viability, T/C: 21.8%
[32]
  viability, T/C: 19.9%
[33]
  viability, T/C: 18%
[34]
  viability, T/C: 20.1%
[35]
  viability, T/C: 19.1%
[36]
  viability, T/C: 13.8%
